Test results as given in patent publication US20220041641A1, “QUATERNARY AMMONIUM SALTS AS INHIBITORS OF TRIMETHYLAMINE PRODUCTION” (Senda Biosciences, Inc., priority 2018, published 2022).

Key:
[1] = target: CutC from Proteus mirabilis (Proteus mirabilis, UniProt B4EYG1); experiment: Cell-based assay for TMA production from a native producer (P. mirabilis); conditions: d9-TMA from 1 mM d9-choline, 5 h, 37° C.; value 10 given when no fit or % TMA remaining at 10 μM higher than 15%; read-out: Average IC50 Whole cell P. mirabilis
Outline: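 Overnight anaerobic cultures of P. mirabilis or C. sporogenes, grown in BHI with 1 mM choline, were diluted and given 1 mM (trimethyl-d9)-choline plus compound at 10 μM final. After 5 h at 37° C., d9-TMA was quantified by LCMS.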

[2] = assay type: in vitro ADME; conditions: 1 µM
Description: This assay was used to assess the stability of a conjugate in a large intestine.
All experiments were performed in an anaerobic chamber containing 90% nitrogen, 5% hydrogen and 5% carbon dioxide. Colonic material was resuspended as a slurry (15% w/v final concentration) in pre-reduced, anaerobically sterilized dilution blanks (Anaerobe Systems AS-908). The colonic material was then inoculated into 96 well plates containing YCFAC media (Anaerobe Systems AS-680, 6.7 μL slurry into 1 mL total media). A compound was added to each individual well to reach a final analyte concentration of 1 μM, and the material was mixed by pipetting. Each sample was removed after set timepoints (0, 120, 240, 480, 1440, 2880 minutes after initiation of the assay), quenched with acetonitrile containing internal standard, and analyzed by LCMS.

[3] = Pharmacokinetic study of colon contents and plasma after oral dose of conjugate; assay type: in vivo, male C57B3L/6 mice; conditions: mouse, in vivo, po
Description: To confirm that the active agent component of the conjugate is released in the gastrointestinal tract, a pharmacokinetic study was conducted in male C57B3L/6 mice examining conjugate and active agent of concentrations in both the colon contents and plasma after oral dose of conjugate. Conjugate and active agent of were quantified by LCMS at 0 (pre-dose), 0.25, 0.5, 1, 2, 4, 6, 8, 12, and 24 hours post-dose of compound.

[4] = tested on: enzymatic activity in fecal matter; experiment: Inhibition of enzymatic activity in fecal matter; assay type: cell-based; conditions: d9-choline 1 mM, 16 hours at 37° C., anaerobic, d9-TMA by LCMS
Description: Inhibition of enzymatic activity in fecal matter was determined by adding a substrate (d9-choline, 1 mM final concentration) and a compound in a range of concentrations in order to determine an IC50. After incubation for a designated 16 hours at 37° C. in anaerobic conditions, samples were be prepared for LCMS analysis, and the amount of d9-TMA produced was determined using LCMS analysis as in the Examples above.

Chain of CutC from Proteus mirabilis (B4EYG1 entry or part of it): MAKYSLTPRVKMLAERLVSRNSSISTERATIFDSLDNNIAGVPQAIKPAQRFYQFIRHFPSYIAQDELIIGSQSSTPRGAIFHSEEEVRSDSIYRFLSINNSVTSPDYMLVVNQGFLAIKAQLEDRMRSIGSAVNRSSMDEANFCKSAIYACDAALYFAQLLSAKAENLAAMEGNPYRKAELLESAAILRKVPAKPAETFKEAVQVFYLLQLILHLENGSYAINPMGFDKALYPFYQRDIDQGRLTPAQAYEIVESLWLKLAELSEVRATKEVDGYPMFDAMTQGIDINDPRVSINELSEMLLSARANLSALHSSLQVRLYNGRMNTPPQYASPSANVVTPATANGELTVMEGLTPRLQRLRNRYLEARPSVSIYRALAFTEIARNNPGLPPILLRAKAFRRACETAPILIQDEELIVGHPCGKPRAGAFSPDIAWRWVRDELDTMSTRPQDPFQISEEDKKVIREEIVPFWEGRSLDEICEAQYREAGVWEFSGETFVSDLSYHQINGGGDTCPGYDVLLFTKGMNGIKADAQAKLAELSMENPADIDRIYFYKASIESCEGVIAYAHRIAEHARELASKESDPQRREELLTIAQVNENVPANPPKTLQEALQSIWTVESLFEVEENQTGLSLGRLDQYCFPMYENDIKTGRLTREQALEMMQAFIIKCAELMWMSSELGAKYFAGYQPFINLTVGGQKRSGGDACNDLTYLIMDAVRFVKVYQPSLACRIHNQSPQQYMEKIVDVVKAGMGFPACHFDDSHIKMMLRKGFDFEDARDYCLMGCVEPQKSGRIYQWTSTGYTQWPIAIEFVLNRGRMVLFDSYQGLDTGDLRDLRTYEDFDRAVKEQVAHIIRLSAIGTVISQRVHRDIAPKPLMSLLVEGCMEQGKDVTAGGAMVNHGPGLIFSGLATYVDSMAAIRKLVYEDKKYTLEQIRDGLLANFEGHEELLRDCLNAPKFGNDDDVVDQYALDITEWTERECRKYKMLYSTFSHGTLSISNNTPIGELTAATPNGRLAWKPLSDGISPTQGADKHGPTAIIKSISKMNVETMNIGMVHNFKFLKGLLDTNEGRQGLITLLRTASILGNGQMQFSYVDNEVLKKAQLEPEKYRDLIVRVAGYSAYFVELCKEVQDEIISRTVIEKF
Chain of CutC from Proteus mirabilis (B4EYG0 entry or part of it, further chain): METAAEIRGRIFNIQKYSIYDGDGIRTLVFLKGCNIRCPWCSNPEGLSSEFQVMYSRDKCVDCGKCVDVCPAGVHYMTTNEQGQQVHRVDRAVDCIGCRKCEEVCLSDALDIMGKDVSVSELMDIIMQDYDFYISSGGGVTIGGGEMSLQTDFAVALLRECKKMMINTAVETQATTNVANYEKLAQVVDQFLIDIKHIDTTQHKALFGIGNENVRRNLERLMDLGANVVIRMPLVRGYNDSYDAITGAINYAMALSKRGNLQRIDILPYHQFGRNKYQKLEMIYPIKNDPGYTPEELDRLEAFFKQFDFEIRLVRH

CC(=O)OC[C@H]1O[C@@H](OCC[N+](C)(C)C2CC2)[C@H](OC(C)=O)[C@@H](OC(C)=O)[C@@H]1OC(C)=O.[I-] [Compound 80, N,N-dimethyl-N-(2-{[(3R,4S,5R,6R)-3,4,5-tris(acetyloxy)-6-[(acetyloxy)methyl]oxan-2-yl]oxy}ethyl)cyclopropanaminium Iodide]
IC50 [1]: ≥ 10 µM | Assay 3- Colonic Material Stability Assay % Remaining at 24 hr [2]: 25% | Plasma Cmax [3]: Not | IC50 [4]: 0.38 µM
